# Measured values reported in article PMC6273037, “Synthesis, Structure and Cytotoxic Activity of Mono- and Dialkoxy Derivatives of 5,8-Quinolinedione” (Molecules, 2016).
# Test system: not given
# Assay: not given
# Details: not given
row,Compound,melting point [°C]
1,"COC1=C(OC)C(=O)c2ncccc2C1=O [Compound 10, 6,7-Dimethoxy-5,8-quinolinedione]",132 to 133
2,"COC1=C(Cl)C(=O)c2cccnc2C1=O [Compound 2, 6-Chloro-7-methoxy-5,8-quinolinedione]",161 to 163
3,"C=CCOC1=C(Cl)C(=O)c2cccnc2C1=O [Compound 5, 6-Chloro-7-(2-propenoxy)-5,8-quinolinedione]",89 to 90
4,"CCCOC1=C(Cl)C(=O)c2cccnc2C1=O [Compound 4, 6-Chloro-7-propoxy-5,8-quinolinedione]",121 to 122
5,"O=C1C(Cl)=C(OCCCl)C(=O)c2ncccc21 [Compound 6, 6-Chloro-7-(2-chloroethoxy)-5,8-quinolinedione]",114 to 116
6,"N#CCCOC1=C(OCCC#N)C(=O)c2ncccc2C1=O [Compound 16, 6,7-di(2-Cyanoethoxy)-5,8-quinolinedione]",45 to 47

# Test system: SNB-19 (human glioblastoma)
# Assay: WST-1 antiproliferative assay, glioblastoma SNB-19
# Format: cell-based
# Details: Homo sapiens, SNB-19; WST-1 test, incubation time 72 h; read-out: Human Cell Line/IC50 ± SD SNB-19
# Description: (§1) As a reference, the cytotoxic agent cisplatin was applied.
# (§2) The synthesized compounds were tested against tumor cells SNB-19 (human glioblastoma, DSMZ-German Collection of Microorganisms and Cell Cultures, Braunschweig, Germany), MDA-MB-231 (human adenocarcinoma, breast cancer; ATCC), C-32 (human melanoma; ATCC) and nontumor cells HFF-1 (normal human fibroblasts derived from foreskin, ATCC). The cultured cells were kept at 37 °C and in 5% CO2. The cells were seeded (10^3 cells/well/[…] DMEM supplemented with FBS (Fetal Bovine Serum, Lonza) to a final concentration of 10% and streptomycin 10 mg/mL and penicillin 1000 IU/mL (Sigma), using 96-well plates (Corning).
# (§3) The antiproliferative effect of the synthesized compounds was determined using the Cell Proliferation Reagent WST-1 assay (Roche Diagnostics, Mannheim, Germany). […] After an exposure to the tested compounds at concentration varying in the range 0.4–400 nM/mL, the cell viability was quantified by a cell proliferation assay. […] The cytotoxic activity of the tested compound was compared to the cisplatin (positive control). The experiments were repeated in triplicate for each concentration of the tested compound. The initial concentration of the tested compounds was 1 mg/mL DMSO. […] Calculations of the IC50 values were performed using the GraphPad Prism 6 (GraphPad Software, San Diego, CA, USA).
row,Compound,IC50 [µM]
1,"O=C1C(OC2CCCCC2)=C(OC2CCCCC2)C(=O)c2ncccc21 [Compound 17, 6,7-Dicyclohexloxy-5,8-quinolinedione]",1.7 ± 0.3
2,"COC1=C(Cl)C(=O)c2cccnc2C1=O [Compound 2, 6-Chloro-7-methoxy-5,8-quinolinedione]",42.2 ± 0.1
3,"C=CCOC1=C(Cl)C(=O)c2cccnc2C1=O [Compound 5, 6-Chloro-7-(2-propenoxy)-5,8-quinolinedione]",0.3 ± 0.01
4,"CCCOC1=C(Cl)C(=O)c2cccnc2C1=O [Compound 4, 6-Chloro-7-propoxy-5,8-quinolinedione]",0.36 ± 0.03
5,"O=C1C(Cl)=C(OCCCl)C(=O)c2ncccc21 [Compound 6, 6-Chloro-7-(2-chloroethoxy)-5,8-quinolinedione]",18.3 ± 1.4
6,"N#CCCOC1=C(OCCC#N)C(=O)c2ncccc2C1=O [Compound 16, 6,7-di(2-Cyanoethoxy)-5,8-quinolinedione]",204 ± 14.3

# Same assay, conditions: WST-1 test, incubation time 72 h; read-out: Human Cell Line/IC50 ± SD SNB-19
row,Compound,IC50 [µM]
1,"6-Chloro-7-(1-methylbenzyloxy)-5,8-quinolinedione [Compound 9]",2.3 ± 0.5
2,"N.N.[Cl][Pt][Cl] [cisplatin, reference compound]",18.9 ± 0.4

# Test system: MDA-MB-231 (human adenocarcinoma, breast cancer)
# Assay: WST-1 antiproliferative assay, breast cancer MDA-MB-231
# Format: cell-based
# Details: Homo sapiens, MDA-MB-231; WST-1 test, incubation time 72 h; read-out: Human Cell Line/IC50 ± SD MDA-MB-231
# Description: as §1, §2, §3
row,Compound,IC50 [µM]
1,"O=C1C(OC2CCCCC2)=C(OC2CCCCC2)C(=O)c2ncccc21 [Compound 17, 6,7-Dicyclohexloxy-5,8-quinolinedione]",13.8 ± 0.1
2,"COC1=C(Cl)C(=O)c2cccnc2C1=O [Compound 2, 6-Chloro-7-methoxy-5,8-quinolinedione]",1.5 ± 0.2
3,"C=CCOC1=C(Cl)C(=O)c2cccnc2C1=O [Compound 5, 6-Chloro-7-(2-propenoxy)-5,8-quinolinedione]",17.2 ± 2.8
4,"CCCOC1=C(Cl)C(=O)c2cccnc2C1=O [Compound 4, 6-Chloro-7-propoxy-5,8-quinolinedione]",22.4 ± 2.7
5,"O=C1C(Cl)=C(OCCCl)C(=O)c2ncccc21 [Compound 6, 6-Chloro-7-(2-chloroethoxy)-5,8-quinolinedione]",17 ± 3
6,"N#CCCOC1=C(OCCC#N)C(=O)c2ncccc2C1=O [Compound 16, 6,7-di(2-Cyanoethoxy)-5,8-quinolinedione]",111 ± 3.7

# Same assay, conditions: WST-1 test, incubation time 72 h; read-out: Human Cell Line/IC50 ± SD MDA-MB-231
row,Compound,IC50 [µM]
1,"6-Chloro-7-(1-methylbenzyloxy)-5,8-quinolinedione [Compound 9]",271 ± 9.8
2,"N.N.[Cl][Pt][Cl] [cisplatin, reference compound]",25.5 ± 0.2

# Same assay, conditions: breast cancer (MDA-MB-231) cell line
row,Compound,selectivity index (SI)
1,"COC1=C(Cl)C(=O)c2cccnc2C1=O [Compound 2, 6-Chloro-7-methoxy-5,8-quinolinedione]",18.4

# Test system: HFF-1 (normal human fibroblasts)
# Assay: WST-1 antiproliferative assay, normal fibroblasts HFF-1
# Format: cell-based
# Details: Homo sapiens, HFF-1; WST-1 test, incubation time 72 h; Neg = Negative in the concentration used; read-out: Human Cell Line/IC50 ± SD HFF-1
# Description: as §1, §2, §3
row,Compound,IC50 [µM]
1,"COC1=C(Cl)C(=O)c2cccnc2C1=O [Compound 2, 6-Chloro-7-methoxy-5,8-quinolinedione]",27.6 ± 2.1
2,"O=C1C(Cl)=C(OCCCl)C(=O)c2ncccc21 [Compound 6, 6-Chloro-7-(2-chloroethoxy)-5,8-quinolinedione]",15.8 ± 1.2
3,"N#CCCOC1=C(OCCC#N)C(=O)c2ncccc2C1=O [Compound 16, 6,7-di(2-Cyanoethoxy)-5,8-quinolinedione]",18.2 ± 2.6

# Same assay, conditions: WST-1 test, incubation time 72 h; Neg = Negative in the concentration used
row,Compound,Human Cell Line/IC50 ± SD HFF-1
1,"O=C1C(OC2CCCCC2)=C(OC2CCCCC2)C(=O)c2ncccc21 [Compound 17, 6,7-Dicyclohexloxy-5,8-quinolinedione]",Neg
2,"C=CCOC1=C(Cl)C(=O)c2cccnc2C1=O [Compound 5, 6-Chloro-7-(2-propenoxy)-5,8-quinolinedione]",Neg
3,"CCCOC1=C(Cl)C(=O)c2cccnc2C1=O [Compound 4, 6-Chloro-7-propoxy-5,8-quinolinedione]",Neg

# Same assay, conditions: WST-1 test, incubation time 72 h; Neg = Negative in the concentration used; read-out: Human Cell Line/IC50 ± SD HFF-1
row,Compound,IC50 [µM]
1,"6-Chloro-7-(1-methylbenzyloxy)-5,8-quinolinedione [Compound 9]",2 ± 0.3
2,"N.N.[Cl][Pt][Cl] [cisplatin, reference compound]",9.1 ± 1.8

# Test system: C-32 (human melanoma)
# Assay: WST-1 antiproliferative assay, melanoma C-32
# Format: cell-based
# Details: Homo sapiens; WST-1 test, incubation time 72 h; read-out: Human Cell Line/IC50 ± SD C-32
# Description: as §1, §2, §3
row,Compound,IC50 [µM]
1,"O=C1C(OC2CCCCC2)=C(OC2CCCCC2)C(=O)c2ncccc21 [Compound 17, 6,7-Dicyclohexloxy-5,8-quinolinedione]",1.4 ± 0.1
2,"COC1=C(Cl)C(=O)c2cccnc2C1=O [Compound 2, 6-Chloro-7-methoxy-5,8-quinolinedione]",19.2 ± 2.1
3,"C=CCOC1=C(Cl)C(=O)c2cccnc2C1=O [Compound 5, 6-Chloro-7-(2-propenoxy)-5,8-quinolinedione]",0.28 ± 0.09
4,"CCCOC1=C(Cl)C(=O)c2cccnc2C1=O [Compound 4, 6-Chloro-7-propoxy-5,8-quinolinedione]",0.2 ± 0.01
5,"O=C1C(Cl)=C(OCCCl)C(=O)c2ncccc21 [Compound 6, 6-Chloro-7-(2-chloroethoxy)-5,8-quinolinedione]",22.8 ± 2.5
6,"N#CCCOC1=C(OCCC#N)C(=O)c2ncccc2C1=O [Compound 16, 6,7-di(2-Cyanoethoxy)-5,8-quinolinedione]",134 ± 10.7

# Same assay, conditions: WST-1 test, incubation time 72 h; read-out: Human Cell Line/IC50 ± SD C-32
row,Compound,IC50 [µM]
1,"6-Chloro-7-(1-methylbenzyloxy)-5,8-quinolinedione [Compound 9]",0.81 ± 0.01
2,"N.N.[Cl][Pt][Cl] [cisplatin, reference compound]",16.4 ± 1.2
